Assays:
[1] = tested on: green peach aphid (Myzus persicae); test: Myzus persicae spray test (Chinese cabbage leaf discs); type: in vivo; settings: application rate 500 g/ha, after 5-6 days, Chinese cabbage leaf discs, 100% = all aphids killed
Protocol: Myzus persicae—Spray Test
To produce a suitable active ingredient formulation, 1 part by weight of active ingredient is dissolved with the stated parts by weight of solvent and made up with water containing an emulsifier concentration of 1000 ppm until the desired concentration is attained. To produce further test concentrations, the formulation is diluted with emulsifier-containing water.
After 5-6 days, the efficacy in % is determined. 100% means that all the aphids have been killed; 0% means that no aphids have been killed.

[2] = tested on: green peach aphids (Myzus persicae); test: Myzus persicae oral test; type: in vivo; settings: application rate 20 ppm, after 5 days, oral, 100% = all aphids killed
Protocol: Solvent: 100 parts by weight of acetone
Subsequently, the plates are sealed with parafilm, which a mixed population of green peach aphids (Myzus persicae) within a second microtitre plate is able to puncture and imbibe the solution through it.
After 5 days, the efficacy in % is determined. 100% means that all the aphids have been killed; 0% means that no aphids have been killed.

[3] = log P by HPLC on reversed-phase column (C18), EEC directive 79/831 Annex V.A8; type: physicochemical

| SMILES | logP [n] ([3]; pH 7.8) | log P[n] ([3]; pH 7.8) | chromatographic logP ([3]; reversed-phase HPLC column (C18), neutral range, pH 7.8, HPLC C18, 43° C., preparation examples, read-out: log P[n]) | efficacy in % [1] | efficacy in % [2] | pest or weed control at 500 g/ha ([1]; Myzus persicae, foliar, read-out: efficacy in %) | pest or weed control at 20 ppm ([2]; Myzus persicae, 120 h, read-out: efficacy in %) |
| --- | --- | --- | --- | --- | --- | --- | --- |
| CN(C(=O)c1cnc(/C=N/NC(=O)OCc2ccccc2)n1C)c1cccnc1 [I-1-028] | 1.63 |  |  | 90% | 100% |  |  |
| CCCCO/N=C/c1ncc(C(=O)N(C)c2cccnc2)n1C [I-1-027] | 2.08 |  |  | 100% | 100% |  |  |
| CN(C(=O)c1cnc(C(=O)N(C)S(C)(=O)=O)n1C)c1cccnc1 [I-1-081] | 1.11 |  |  | 90% | 100% |  |  |
| CN(C(=O)c1cnc(/C=N/OCC(C)(C)C)n1C)c1cccnc1 [I-1-036] | 2.22 |  |  | 100% | 100% |  |  |
| CCCCN(/N=C/c1ncc(C(=O)N(C)c2cccnc2)n1C)C(=O)OCC [I-1-029] | 2.06 |  |  | 90% | 100% |  |  |
| CC(C)CNC(=O)c1ncc(C(=O)N(C)c2cccnc2)n1C [I-1-065] | 1.57 |  |  | 100% | 100% |  |  |
| CN(C(=O)c1cnc(/C=N/OCc2ccccn2)n1C)c1cccnc1 [I-1-013] | 1.26 |  |  | 100% | 100% |  |  |
| CCCO/N=C/c1ncc(C(=O)N(C)c2cccnc2)n1C [I-1-023] | 1.74 |  |  | 100% | 100% |  |  |
| CCCO/N=C/c1ncc(C(=O)N(CC)c2cccnc2)n1C [I-1-043] | 1.85 |  |  | 90% | 100% |  |  |
| CCOC(=O)N(C)/N=C/c1ncc(C(=O)N(C)c2cccnc2)n1C [I-1-019] | 1.33 |  |  | 90% | 100% |  |  |
| CN(/N=C/c1ncc(C(=O)N(C)c2cccnc2)n1C)C(=O)OC(C)(C)C [I-1-038] | 1.82 |  |  | 90% | 100% |  |  |
| CCOC(=O)CNC(=O)c1ncc(C(=O)N(C)c2cccnc2)n1C [I-1-075] | 1.22 |  |  | 90% | 100% |  |  |

Continued, in another order:

| logP [n] ([3]; pH 7.8) | log P[n] ([3]; pH 7.8) | chromatographic logP ([3]; reversed-phase HPLC column (C18), neutral range, pH 7.8, HPLC C18, 43° C., preparation examples, read-out: log P[n]) | SMILES | efficacy in % [1] | efficacy in % [2] | pest or weed control at 500 g/ha ([1]; Myzus persicae, foliar, read-out: efficacy in %) | pest or weed control at 20 ppm ([2]; Myzus persicae, 120 h, read-out: efficacy in %) |
| --- | --- | --- | --- | --- | --- | --- | --- |
| 1.48 | 1.48 |  | CN(C(=O)c1cnc(C2COC(C)(C)OC2)n1C)c1cccnc1 [I-1-016, 2-(2,2-Dimethyl-1,3-dioxan-5-yl)-N,1-dimethyl-N-(pyridin-3-yl)-1H-imidazole-5-carboxamide] | 100% | 100% |  |  |
| 1.02 |  |  | CC1COC(c2ncc(C(=O)N(C)c3cccnc3)n2C)O1 (stereo not shown) [I-1-014] | 100% | 100% |  |  |
|  |  | 0.72 | CON(C)C(=O)c1ncc(C(=O)N(C)c2cccnc2)n1C [I-1-069, N^2-Methoxy-N^2,N^5,1-trimethyl-N^5-(pyridin-3-yl)-1H-imidazole-2,5-dicarboxamide] |  |  | 100% | 100% |
| 1.23 |  |  | CC1OC(c2ncc(C(=O)N(C)c3cccnc3)n2C)OC1C (stereo not shown) [I-1-020] | 100% | 100% |  |  |
| 1.13 |  |  | CN(C(=O)c1cnc(C2OCCCS2)n1C)c1cccnc1 (stereo not shown) [I-1-022] | 100% | 100% |  |  |
| 1.1 |  |  | CO/N=C/c1ncc(C(=O)N(C)c2cccnc2)n1C [I-1-001] | 90% | 100% |  |  |
| 0.87 |  |  | CCN(C)C(=O)c1ncc(C(=O)N(C)c2cccnc2)n1C [I-1-053] | 90% | 100% |  |  |
| 1.41 |  |  | CCO/N=C/c1ncc(C(=O)N(C)c2cccnc2)n1C [I-1-004] | 90% | 100% |  |  |

Reference: US20190045783A1, “SUBSTITUTED IMIDAZOLYLCARBOXAMIDES AS PESTICIDES” (BAYER CROPSCIENCE AKTIENGESELLSCHAFT, priority 2016, published 2019)
